Measurements taken from paper PMC8522722, “Safety and Pharmacokinetics in Human Volunteers of Taniborbactam (VNRX-5133), a Novel Intravenous β-Lactamase Inhibitor” (Antimicrobial Agents and Chemotherapy, 2021).

What was measured:
[1] = Cardiodynamic ECG assessment and concentration-QT effect model (SAD part); type: in vivo, human
Description: ECG and pharmacokinetic data from the SAD part of the study were used to construct a concentration-QT effect model to assess potential QT effects. The primary cardiodynamic safety parameter was the corrected QT interval by Fredericia (QTcF). The potential impact of taniborbactam on other ECG intervals and T-wave morphology was also assessed. The ECG monitoring in the study was intensive, with continuous Holter 12-lead ECGs recorded on day 1. ECG data used in the modeling consisted of extracted replicates at time points that matched the pharmacokinetic data. The concentration-QT effect model included the entire single-dose range of between 62.5 mg and 1,500 mg taniborbactam.

[2] = tested on: Enterobacterales isolates; parameters: method as in ref 13, 14 = [13]; 13 Vidales A , Hackel M , Wise M , Sahm D . 2020 . Antimicrobial activity of cefepime in combination with taniborbactam (formerly VNRX-5133) against clinical isolates of Enterobacterales collected fro || [14]; 14 Kalamatas J , Hackel M , Wise M , Sahm D . 2020 . Antimicrobial activity of cefepime in combination with taniborbactam (formerly VNRX-5133) against a 2018–2019 surveillance collection of Pseudomona; conditions: cited from earlier work
[3] = Single-ascending-dose (SAD) pharmacokinetics in plasma and urine, healthy adult volunteers; type: in vivo, human; conditions: for Tmax: median (range); for Fe: excreted unchanged in urine over 48 h; for Ae: urine over 48 h
Description: Eligible subjects were randomized to receive either taniborbactam or placebo in a 3:1 ratio within dose cohorts in both the SAD and MAD parts of the study. Each dose cohort in the SAD part of the study enrolled 8 subjects, and each dose cohort in the MAD part of the study enrolled 12 subjects. In the SAD part, subjects received 62.5, 125, 250, 500, 1,000, or 1,500 mg taniborbactam as a 2-h intravenous (i.v.) infusion. In the MAD part, subjects received 2-h intravenous i.v. infusions of 250, 500, or 750 mg taniborbactam q8h over 10 days, ending after a final morning dose on day 10 (total of 28 doses).
Blood samples for assay of taniborbactam in plasma were collected predose and at 1, 2, 2.25, 2.5, 2.75, 3, 4, 6, 8, 12, 26, and 50 h after the start of drug infusion in the SAD part. For the MAD part, blood samples to determine taniborbactam plasma concentrations were collected predose and at 1, 2, 2.25, 2.5, 2.75, 3, 4, 6, and 8 h following the first dose (day 1) and predose and at 1, 2, 2.25, 2.5, 2.75, 3, 4, 6, 10, 14, and 26 h following the last dose (day 10). Urine was collected predose and at intervals of 0 to 4, 4 to 8, 8 to 24, and 24 to 48 h after the start of the infusion in the SAD part for the higher-dose groups (500 to 1,500 mg taniborbactam). For the MAD part, urine was collected through the dosing interval following the last dose using collection intervals of 0 to 4 and 4 to 8 h after the start of the infusion. At the end of each urine collection interval, the volume of each urine collection was recorded and a sample was taken.
Plasma and urine samples were assayed for taniborbactam and screened for possible metabolites. Human dipotassium ethylenediaminetetraacetic acid (K2EDTA) plasma samples were processed using protein precipitation and assayed using ultra-high-performance liquid chromatography with tandem mass spectrometric detection (LC-MS/MS). Both low- and high-range methods were developed and validated for plasma samples, with calibration ranges of 5 to 5,000 ng/ml and 100 to 100,000 ng/ml, respectively. Acidified urine samples were processed using solid-phase extraction and assayed using a validated LC-MS/MS method with a calibration range of 5.0 to 5,000 ng/ml. For both matrices, separation was accomplished using a Waters Acquity HSS T3 column (Milford, MA) at 50°C, and gradient elution using 10 mM ammonium formate with 1% formic acid as mobile phase A and 50:50:1 acetonitrile:methanol:formic acid (vol/vol/vol) as mobile phase B. A triple quadrupole mass spectrometer (API Triple Quad 5500; AB Sciex, Framingham, MA) equipped with a turbo-ion spray set was used for detection in positive ion mode, and quantification was based on multiple reaction monitoring. The internal standard used in the assays was D4-taniborbactam.
Individual subject plasma and urine taniborbactam pharmacokinetic parameters were evaluated using noncompartmental analysis methods (Phoenix WinNonlin, Certara, Princeton, NJ). Single-dose pharmacokinetic parameters were determined in the SAD part, and both single-dose (day 1) and multiple-dose (day 10) pharmacokinetic parameters were determined in the MAD part. Estimated pharmacokinetic parameters included Cmax, time to Cmax (Tmax), AUCtau, AUC0–inf, t1/2, CL, VZ, Ae, Fe, and CLR. The actual sample times were used to calculate the pharmacokinetic parameters. Calculation of λZ was based on best fit of concentrations in the observed terminal elimination phase of a profile, and statistical inclusion of any parameter based on λZ required the goodness of fit statistic (R^2) to be greater than 0.8. Pharmacokinetic data were summarized using descriptive statistics by treatment. Dose proportionality based on Cmax and AUC was determined using linear regression to calculate the slope and 90% CI and observing whether a slope of 1 was included in the confidence interval. The dose proportionality analysis included subject body weight as a covariate in the analysis.

[4] = single dose 62.5 mg, 2-h i.v. infusion, mean (%CV)
[5] = single dose 125 mg, 2-h i.v. infusion, mean (%CV)
[6] = single dose 250 mg, 2-h i.v. infusion, mean (%CV)
[7] = single dose 500 mg, 2-h i.v. infusion, mean (%CV)
[8] = single dose 1,000 mg, 2-h i.v. infusion, mean (%CV)
[9] = single dose 1,000 mg, mean (%CV)
[10] = single dose 1,500 mg, 2-h i.v. infusion, mean (%CV)
[11] = single dose 1,500 mg, mean (%CV)

SMILES: NCCN[C@H]1CC[C@H](CC(=O)N[C@H]2Cc3cccc(C(=O)O)c3OB2O)CC1 [Taniborbactam]
- QT effect (ΔΔQTcF) from exposure-response analysis ([1]; plasma concentrations up to 80,000 ng/ml (Cmax of 1,500 mg dose)): ≤ 10 ms
- effect on heart rate, T-wave morphology, PR and QRS interval ([1]; single doses 62.5 to 1,500 mg): did not have an effect
- potentiation of cefepime activity as measured by the MIC90 [2]: at least 128 fold
- t1/2 ([3]; higher single-dose groups (500 to 1,500 mg)): ~5.7 h
- AUCinf [3, 4]: 11,284 (13.3) h · ng/ml
- CL [3, 4]: 5.6 (14.1) liters/h
- Cmax [3, 4]: 3,398 (17.0) ng/ml
- Vz [3, 4]: 28.4 (18.7) liters
- Tmax ([3]; single dose 62.5 mg, 2-h i.v. infusion): 2.0 (2.0, 2.0) h
- t1/2 ([3]; single dose 62.5 mg, 2-h i.v. infusion, terminal elimination, mean (%CV)): 3.5 (9.3) h
- AUCinf [3, 5]: 20,326 (13.7) h · ng/ml
- CL [3, 5]: 6.2 (12.6) liters/h
- Cmax [3, 5]: 5,023 (13.8) ng/ml
- Vz [3, 5]: 30.2 (14.2) liters
- Tmax ([3]; single dose 125 mg, 2-h i.v. infusion): 2.0 (2.0, 2.0) h
- t1/2 ([3]; single dose 125 mg, 2-h i.v. infusion, terminal elimination, mean (%CV)): 3.4 (5.8) h
- AUCinf [3, 6]: 41,106 (19.0) h · ng/ml
- CL [3, 6]: 6.3 (17.5) liters/h
- Cmax [3, 6]: 11,533 (13.8) ng/ml
- Vz [3, 6]: 34.6 (17.1) liters
- Tmax ([3]; single dose 250 mg, 2-h i.v. infusion): 2.0 (2.0, 2.0) h
- t1/2 ([3]; single dose 250 mg, 2-h i.v. infusion, terminal elimination, mean (%CV)): 4.0 (31.1) h
- AUCinf [3, 7]: 82,499 (9.2) h · ng/ml
- CL [3, 7]: 6.1 (9.0) liters/h
- Cmax [3, 7]: 22,650 (11.4) ng/ml
- Vz [3, 7]: 50.2 (12.1) liters
- Tmax ([3]; single dose 500 mg, 2-h i.v. infusion): 2.0 (2.0, 2.0) h
- t1/2 ([3]; single dose 500 mg, 2-h i.v. infusion, terminal elimination, mean (%CV)): 5.7 (4.3) h
- Fe ([3]; single dose 500 mg, mean (%CV)): 64.1 (9.6) %
- Fe ([3]; single dose 500 mg, mean (%CV), listed as taniborbactam): 64.1%
- CLR ([3]; single dose 500 mg, mean (%CV)): 3.9 (15.5) liters/h
- Ae ([3]; single dose 500 mg, mean (%CV)): 320.6 (9.6) mg
- AUCinf [3, 8]: 156,542 (15.7) h · ng/ml
- CL [3, 8]: 6.5 (15.7) liters/h
- Cmax [3, 8]: 43,317 (14.8) ng/ml
- Vz [3, 8]: 54.0 (17.9) liters
- Tmax ([3]; single dose 1,000 mg, 2-h i.v. infusion): 2.0 (2.0, 2.1) h
- t1/2 ([3]; single dose 1,000 mg, 2-h i.v. infusion, terminal elimination, mean (%CV)): 5.7 (3.3) h
- Fe [3, 9]: 76.7 (9.4) %
- Fe ([3]; single dose 1,000 mg, mean (%CV), listed as taniborbactam): 76.7%
- CLR [3, 9]: 5.0 (16.7) liters/h
- Ae [3, 9]: 766.9 (9.4) mg
- AUCinf [3, 10]: 263,422 (17.8) h · ng/ml
- CL [3, 10]: 5.9 (19.2) liters/h
- Cmax [3, 10]: 71,817 (16.3) ng/ml
- Vz [3, 10]: 49.4 (21.6) liters
- Tmax ([3]; single dose 1,500 mg, 2-h i.v. infusion): 2.0 (2.0, 2.0) h
- t1/2 ([3]; single dose 1,500 mg, 2-h i.v. infusion, terminal elimination, mean (%CV)): 5.8 (6.2) h
- Fe [3, 11]: 66.6 (12.9) %
- Fe ([3]; single dose 1,500 mg, mean (%CV), listed as taniborbactam): 66.6%
- CLR [3, 11]: 3.9 (16.8) liters/h
- Ae [3, 11]: 998.7 (12.9) mg
- half-life of the earlier phase that characterizes the majority of exposure ([3]; single doses, also seen within dose intervals on multiple dosing): about 2 h
